# Reference: ChEMBL document CHEMBL1938312, “Design and combinatorial synthesis of a novel kinase-focused library using click chemistry-based fragment assembly” (Bioorg Med Chem Lett, 2012)
# Activity calls are given as the source filed them. No cut-off for these calls is given here.
# Experiments:
# [1] = molecular target: Serine/threonine-protein kinase pim-1 (Homo sapiens) (UniProt P11309); experiment: Inhibition of PIM1 at 10 uM by colorimetric analysis
# [2] = molecular target: T1, Tyrosine-protein kinase ITK/TSK (Homo sapiens) (UniProt Q08881); experiment: Inhibition of ITK at 10 uM by colorimetric analysis
# T1 sequence (whole entry): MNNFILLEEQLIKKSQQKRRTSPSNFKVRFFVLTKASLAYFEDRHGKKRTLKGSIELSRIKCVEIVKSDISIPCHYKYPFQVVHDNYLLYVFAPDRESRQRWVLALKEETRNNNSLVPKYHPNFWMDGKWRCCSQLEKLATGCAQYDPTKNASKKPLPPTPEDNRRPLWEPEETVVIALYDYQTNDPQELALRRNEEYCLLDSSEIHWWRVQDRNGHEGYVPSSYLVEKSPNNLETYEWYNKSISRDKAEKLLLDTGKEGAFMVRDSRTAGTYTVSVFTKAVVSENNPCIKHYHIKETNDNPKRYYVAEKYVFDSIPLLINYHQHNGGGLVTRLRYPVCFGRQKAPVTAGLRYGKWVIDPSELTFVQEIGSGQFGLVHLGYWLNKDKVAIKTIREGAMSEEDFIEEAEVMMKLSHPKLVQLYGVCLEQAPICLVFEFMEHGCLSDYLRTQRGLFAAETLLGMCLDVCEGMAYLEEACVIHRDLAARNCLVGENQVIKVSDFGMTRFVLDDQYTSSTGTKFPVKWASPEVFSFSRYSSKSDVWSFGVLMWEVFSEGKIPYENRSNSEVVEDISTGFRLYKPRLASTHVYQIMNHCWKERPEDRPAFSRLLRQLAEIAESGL
# [3] = molecular target: 5'-AMP-activated protein kinase catalytic subunit alpha-1 (Homo sapiens) (UniProt Q13131); experiment: Inhibition of AMPKalpha1 at 10 uM by colorimetric analysis
# [4] = molecular target: Mitogen-activated protein kinase 1 (Homo sapiens) (UniProt P28482); experiment: Inhibition of Erk2 at 10 uM by colorimetric analysis
# Sequence of Mitogen-activated protein kinase 1 (Homo sapiens) (P28482 whole entry): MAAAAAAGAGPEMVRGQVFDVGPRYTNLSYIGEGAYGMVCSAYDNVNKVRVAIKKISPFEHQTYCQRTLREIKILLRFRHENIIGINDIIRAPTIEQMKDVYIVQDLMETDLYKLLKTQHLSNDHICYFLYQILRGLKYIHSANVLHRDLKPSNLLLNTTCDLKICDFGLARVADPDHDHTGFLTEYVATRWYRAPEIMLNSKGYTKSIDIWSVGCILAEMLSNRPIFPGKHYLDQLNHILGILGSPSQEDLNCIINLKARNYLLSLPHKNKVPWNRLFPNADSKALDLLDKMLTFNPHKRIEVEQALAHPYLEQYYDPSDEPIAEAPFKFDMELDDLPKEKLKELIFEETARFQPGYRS
# [5] = molecular target: Insulin-like growth factor 1 receptor (Homo sapiens) (UniProt P08069); experiment: Inhibition of IGF1R at 10 uM by colorimetric analysis
# Sequence of Insulin-like growth factor 1 receptor (Homo sapiens) (P08069 31-736 limits assumed): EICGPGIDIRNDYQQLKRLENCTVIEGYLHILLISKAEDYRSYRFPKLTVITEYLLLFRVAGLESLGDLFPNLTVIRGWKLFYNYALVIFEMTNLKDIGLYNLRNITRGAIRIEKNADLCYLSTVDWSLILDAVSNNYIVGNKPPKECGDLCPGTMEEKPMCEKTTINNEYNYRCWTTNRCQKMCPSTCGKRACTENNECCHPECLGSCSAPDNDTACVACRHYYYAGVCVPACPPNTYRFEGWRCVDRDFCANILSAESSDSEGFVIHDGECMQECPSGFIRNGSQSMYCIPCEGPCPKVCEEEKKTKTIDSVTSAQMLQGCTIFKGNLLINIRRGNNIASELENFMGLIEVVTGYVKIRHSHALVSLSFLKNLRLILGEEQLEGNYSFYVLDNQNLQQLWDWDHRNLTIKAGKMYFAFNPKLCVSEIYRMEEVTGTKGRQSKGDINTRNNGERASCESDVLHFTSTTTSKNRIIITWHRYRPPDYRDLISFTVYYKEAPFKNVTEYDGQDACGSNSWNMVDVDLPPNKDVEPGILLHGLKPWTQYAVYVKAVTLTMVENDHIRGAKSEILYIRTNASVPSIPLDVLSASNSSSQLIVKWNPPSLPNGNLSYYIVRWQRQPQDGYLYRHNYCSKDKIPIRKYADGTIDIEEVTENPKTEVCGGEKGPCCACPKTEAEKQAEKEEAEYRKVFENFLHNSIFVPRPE
# Sequence of Insulin-like growth factor 1 receptor (Homo sapiens) (P08069 741-1367 limits assumed): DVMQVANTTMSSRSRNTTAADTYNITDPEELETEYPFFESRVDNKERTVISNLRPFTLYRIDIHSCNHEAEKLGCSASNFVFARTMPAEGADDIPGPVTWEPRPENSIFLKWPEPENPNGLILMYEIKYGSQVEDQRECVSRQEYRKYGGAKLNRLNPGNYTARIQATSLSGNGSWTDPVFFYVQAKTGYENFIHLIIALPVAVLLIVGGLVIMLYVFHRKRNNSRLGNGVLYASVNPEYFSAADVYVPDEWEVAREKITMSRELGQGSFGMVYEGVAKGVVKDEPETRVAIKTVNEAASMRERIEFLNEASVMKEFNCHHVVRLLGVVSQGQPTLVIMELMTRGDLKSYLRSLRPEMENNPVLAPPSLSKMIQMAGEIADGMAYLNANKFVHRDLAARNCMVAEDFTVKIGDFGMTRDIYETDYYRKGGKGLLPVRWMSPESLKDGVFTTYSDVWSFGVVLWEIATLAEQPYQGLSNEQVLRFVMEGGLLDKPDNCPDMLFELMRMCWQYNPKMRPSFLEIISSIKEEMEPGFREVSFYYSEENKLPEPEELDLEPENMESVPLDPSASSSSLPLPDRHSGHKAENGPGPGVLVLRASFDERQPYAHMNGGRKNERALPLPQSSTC
# [6] = molecular target: 3-phosphoinositide-dependent protein kinase 1 (Homo sapiens) (UniProt O15530); experiment: Inhibition of PDK1 at 10 uM by colorimetric analysis
# Sequence of 3-phosphoinositide-dependent protein kinase 1 (Homo sapiens) (O15530 whole entry, looked up): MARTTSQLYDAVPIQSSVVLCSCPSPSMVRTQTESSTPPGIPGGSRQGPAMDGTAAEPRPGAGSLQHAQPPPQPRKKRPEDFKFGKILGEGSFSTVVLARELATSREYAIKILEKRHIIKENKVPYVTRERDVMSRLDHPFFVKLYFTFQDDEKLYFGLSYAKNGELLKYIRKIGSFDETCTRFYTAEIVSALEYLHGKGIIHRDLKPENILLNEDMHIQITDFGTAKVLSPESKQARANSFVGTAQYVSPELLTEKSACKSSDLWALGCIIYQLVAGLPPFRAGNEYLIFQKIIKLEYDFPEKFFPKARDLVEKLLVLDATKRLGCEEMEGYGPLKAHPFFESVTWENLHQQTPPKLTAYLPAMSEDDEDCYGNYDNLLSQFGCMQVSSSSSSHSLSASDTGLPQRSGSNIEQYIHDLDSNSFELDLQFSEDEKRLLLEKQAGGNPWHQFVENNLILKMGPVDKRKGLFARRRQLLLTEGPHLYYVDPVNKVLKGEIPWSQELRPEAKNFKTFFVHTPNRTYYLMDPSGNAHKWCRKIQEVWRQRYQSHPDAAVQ
# [7] = molecular target: T2, Serine/threonine-protein kinase D2 (Homo sapiens) (UniProt Q9BZL6); experiment: Inhibition of PKD2 at 10 uM by colorimetric analysis
# T2 sequence (whole entry): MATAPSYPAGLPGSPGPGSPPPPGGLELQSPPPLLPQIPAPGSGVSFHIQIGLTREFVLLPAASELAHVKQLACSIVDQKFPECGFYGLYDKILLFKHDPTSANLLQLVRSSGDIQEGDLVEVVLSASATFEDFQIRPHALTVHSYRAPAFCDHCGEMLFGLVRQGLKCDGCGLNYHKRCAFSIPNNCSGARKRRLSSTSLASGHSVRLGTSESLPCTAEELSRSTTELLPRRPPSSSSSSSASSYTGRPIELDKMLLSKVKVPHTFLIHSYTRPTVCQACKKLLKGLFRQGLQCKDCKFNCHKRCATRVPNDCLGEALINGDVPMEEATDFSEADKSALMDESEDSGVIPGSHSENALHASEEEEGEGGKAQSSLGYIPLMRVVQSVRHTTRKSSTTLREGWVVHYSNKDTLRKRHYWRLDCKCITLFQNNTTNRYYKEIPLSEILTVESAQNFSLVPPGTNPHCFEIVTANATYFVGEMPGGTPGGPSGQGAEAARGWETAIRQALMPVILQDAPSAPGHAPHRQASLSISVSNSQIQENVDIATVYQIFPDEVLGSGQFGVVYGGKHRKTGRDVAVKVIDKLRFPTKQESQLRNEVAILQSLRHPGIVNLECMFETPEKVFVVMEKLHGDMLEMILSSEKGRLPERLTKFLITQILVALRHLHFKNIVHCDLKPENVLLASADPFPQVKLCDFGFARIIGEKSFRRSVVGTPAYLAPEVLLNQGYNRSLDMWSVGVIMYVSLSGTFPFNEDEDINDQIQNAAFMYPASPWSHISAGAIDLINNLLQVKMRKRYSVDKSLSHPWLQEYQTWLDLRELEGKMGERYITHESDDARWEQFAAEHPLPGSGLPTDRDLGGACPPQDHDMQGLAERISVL
# [8] = molecular target: High affinity nerve growth factor receptor (Homo sapiens) (UniProt P04629); experiment: Inhibition of TRKA at 10 uM by colorimetric analysis
# Sequence of High affinity nerve growth factor receptor (Homo sapiens) (P04629 33-796 limits assumed): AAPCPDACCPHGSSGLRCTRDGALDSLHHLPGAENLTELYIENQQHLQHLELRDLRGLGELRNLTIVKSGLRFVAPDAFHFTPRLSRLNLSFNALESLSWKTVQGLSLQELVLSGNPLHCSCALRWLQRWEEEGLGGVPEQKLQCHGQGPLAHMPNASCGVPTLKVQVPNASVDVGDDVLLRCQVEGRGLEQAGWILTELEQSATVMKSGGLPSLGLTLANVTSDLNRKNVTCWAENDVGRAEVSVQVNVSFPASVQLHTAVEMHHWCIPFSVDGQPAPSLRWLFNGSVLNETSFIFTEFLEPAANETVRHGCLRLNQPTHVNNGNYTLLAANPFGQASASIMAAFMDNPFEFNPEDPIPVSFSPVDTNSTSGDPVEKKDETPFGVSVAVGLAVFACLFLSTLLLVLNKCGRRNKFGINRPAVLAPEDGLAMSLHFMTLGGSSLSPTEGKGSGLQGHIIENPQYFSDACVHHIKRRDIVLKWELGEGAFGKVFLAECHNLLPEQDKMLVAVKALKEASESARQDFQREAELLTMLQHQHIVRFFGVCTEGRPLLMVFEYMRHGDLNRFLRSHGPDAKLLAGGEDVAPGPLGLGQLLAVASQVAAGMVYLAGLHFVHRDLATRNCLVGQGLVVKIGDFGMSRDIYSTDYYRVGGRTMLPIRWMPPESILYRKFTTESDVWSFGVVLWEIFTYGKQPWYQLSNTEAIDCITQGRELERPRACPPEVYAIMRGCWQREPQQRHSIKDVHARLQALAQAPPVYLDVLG
# [9] = molecular target: Fibroblast growth factor receptor 1 (Homo sapiens) (UniProt P11362); experiment: Inhibition of FGFR1 at 10 uM by colorimetric analysis
# Sequence of Fibroblast growth factor receptor 1 (Homo sapiens) (P11362 22-822 limits assumed): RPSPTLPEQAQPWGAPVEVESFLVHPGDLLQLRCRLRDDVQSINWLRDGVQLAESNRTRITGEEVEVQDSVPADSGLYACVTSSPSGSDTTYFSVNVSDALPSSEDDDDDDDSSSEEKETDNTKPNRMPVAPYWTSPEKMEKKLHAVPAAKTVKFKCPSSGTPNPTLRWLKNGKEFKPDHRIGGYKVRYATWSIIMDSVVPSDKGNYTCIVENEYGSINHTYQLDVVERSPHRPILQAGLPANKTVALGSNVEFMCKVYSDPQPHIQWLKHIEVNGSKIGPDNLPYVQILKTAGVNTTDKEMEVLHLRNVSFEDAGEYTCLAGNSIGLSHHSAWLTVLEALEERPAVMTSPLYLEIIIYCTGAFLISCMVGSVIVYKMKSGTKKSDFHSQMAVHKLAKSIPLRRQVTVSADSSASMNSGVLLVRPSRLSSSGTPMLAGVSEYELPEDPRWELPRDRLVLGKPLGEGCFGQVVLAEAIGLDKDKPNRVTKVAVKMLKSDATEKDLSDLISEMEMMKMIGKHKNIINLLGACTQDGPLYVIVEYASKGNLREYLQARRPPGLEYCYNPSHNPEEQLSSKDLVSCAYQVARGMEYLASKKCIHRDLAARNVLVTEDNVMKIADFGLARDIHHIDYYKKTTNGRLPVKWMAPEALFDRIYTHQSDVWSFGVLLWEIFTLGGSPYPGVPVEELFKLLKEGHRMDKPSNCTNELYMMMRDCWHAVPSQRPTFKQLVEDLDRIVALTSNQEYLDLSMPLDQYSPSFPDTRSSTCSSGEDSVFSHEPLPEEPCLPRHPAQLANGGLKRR
# [10] = molecular target: T3, Serine/threonine-protein kinase Sgk1 (Homo sapiens) (UniProt O00141); experiment: Inhibition of SGK at 10 uM by colorimetric analysis
# T3 sequence (whole entry): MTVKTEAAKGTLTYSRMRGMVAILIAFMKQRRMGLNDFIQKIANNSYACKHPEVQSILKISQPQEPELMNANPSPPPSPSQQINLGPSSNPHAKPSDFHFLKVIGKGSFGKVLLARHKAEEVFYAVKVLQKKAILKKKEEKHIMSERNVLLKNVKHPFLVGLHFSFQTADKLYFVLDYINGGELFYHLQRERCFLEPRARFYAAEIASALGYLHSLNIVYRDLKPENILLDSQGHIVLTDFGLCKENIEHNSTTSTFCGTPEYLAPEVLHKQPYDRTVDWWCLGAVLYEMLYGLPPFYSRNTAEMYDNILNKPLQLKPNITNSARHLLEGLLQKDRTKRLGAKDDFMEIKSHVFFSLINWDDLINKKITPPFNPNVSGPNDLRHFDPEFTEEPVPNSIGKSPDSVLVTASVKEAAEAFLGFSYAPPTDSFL
# [11] = molecular target: Death-associated protein kinase 1 (Homo sapiens) (UniProt P53355); experiment: Inhibition of DAPK1 at 10 uM by colorimetric analysis
# [12] = molecular target: Dual specificity tyrosine-phosphorylation-regulated kinase 1B (Homo sapiens) (UniProt Q9Y463); experiment: Inhibition of DYRK1B at 10 uM by colorimetric analysis
# Sequence of Dual specificity tyrosine-phosphorylation-regulated kinase 1B (Homo sapiens) (Q9Y463 whole entry, looked up): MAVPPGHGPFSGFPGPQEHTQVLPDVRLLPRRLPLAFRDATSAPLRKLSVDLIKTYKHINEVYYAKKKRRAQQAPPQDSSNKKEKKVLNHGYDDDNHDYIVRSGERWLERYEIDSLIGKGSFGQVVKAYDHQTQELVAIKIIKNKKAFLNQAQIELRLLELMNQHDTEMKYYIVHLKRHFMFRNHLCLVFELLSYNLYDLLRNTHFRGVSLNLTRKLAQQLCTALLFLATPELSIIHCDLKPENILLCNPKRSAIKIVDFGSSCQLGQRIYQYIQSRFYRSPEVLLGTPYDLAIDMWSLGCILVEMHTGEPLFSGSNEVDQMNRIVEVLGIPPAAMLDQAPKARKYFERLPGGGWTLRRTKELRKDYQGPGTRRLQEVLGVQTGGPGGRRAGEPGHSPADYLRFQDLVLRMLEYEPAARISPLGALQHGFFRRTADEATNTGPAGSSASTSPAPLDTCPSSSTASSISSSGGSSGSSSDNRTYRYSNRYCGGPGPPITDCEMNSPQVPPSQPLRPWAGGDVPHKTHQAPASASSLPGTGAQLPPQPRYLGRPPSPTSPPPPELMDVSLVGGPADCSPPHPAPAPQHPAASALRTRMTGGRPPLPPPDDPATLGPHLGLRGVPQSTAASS
# Sequence of Serine/threonine-protein kinase pim-1 (Homo sapiens) (P11309 whole entry, looked up): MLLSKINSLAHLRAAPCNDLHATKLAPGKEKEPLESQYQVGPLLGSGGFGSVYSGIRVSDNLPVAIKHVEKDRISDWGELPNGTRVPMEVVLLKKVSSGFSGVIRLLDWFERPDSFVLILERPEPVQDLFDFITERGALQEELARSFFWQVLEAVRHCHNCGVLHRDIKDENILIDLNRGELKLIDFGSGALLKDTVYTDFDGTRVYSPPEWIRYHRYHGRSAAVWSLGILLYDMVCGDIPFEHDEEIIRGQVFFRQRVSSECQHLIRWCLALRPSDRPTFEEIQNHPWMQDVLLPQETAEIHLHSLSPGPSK
inhibition [1],inhibition [2],inhibition [3],inhibition [4],inhibition [5],inhibition [6],inhibition [7],inhibition [8],inhibition [9],inhibition [10],inhibition [12],SMILES,inhibition [11]
Active,inactive,Active,Active,inactive,Active,Active,inactive,inactive,Active,Active,Clc1cccc(-n2cc(-c3ccncc3)nn2)c1,Active
Active,inactive,Active,Active,inactive,Active,Active,inactive,inactive,Active,Active,Clc1cccc(-n2nncc2-c2ccncc2)c1,Active
Active,inactive,Active,Active,inactive,Active,Active,inactive,inactive,Active,Active,Clc1ccc(-n2cc(-c3ccncc3)nn2)cc1,Active
Active,inactive,Active,Active,inactive,Active,Active,inactive,inactive,Active,Active,Clc1ccc(-n2nncc2-c2ccncc2)cc1,Active
